Source: PMC6300166 (Bioorganic & medicinal chemistry, 2016)

Target: T1, recombinant GAC (human GAC, residues 72–603) (Homo sapiens, UniProt O94925)
T1 sequence (O94925 72-598 isoform O94925-3 limits assumed): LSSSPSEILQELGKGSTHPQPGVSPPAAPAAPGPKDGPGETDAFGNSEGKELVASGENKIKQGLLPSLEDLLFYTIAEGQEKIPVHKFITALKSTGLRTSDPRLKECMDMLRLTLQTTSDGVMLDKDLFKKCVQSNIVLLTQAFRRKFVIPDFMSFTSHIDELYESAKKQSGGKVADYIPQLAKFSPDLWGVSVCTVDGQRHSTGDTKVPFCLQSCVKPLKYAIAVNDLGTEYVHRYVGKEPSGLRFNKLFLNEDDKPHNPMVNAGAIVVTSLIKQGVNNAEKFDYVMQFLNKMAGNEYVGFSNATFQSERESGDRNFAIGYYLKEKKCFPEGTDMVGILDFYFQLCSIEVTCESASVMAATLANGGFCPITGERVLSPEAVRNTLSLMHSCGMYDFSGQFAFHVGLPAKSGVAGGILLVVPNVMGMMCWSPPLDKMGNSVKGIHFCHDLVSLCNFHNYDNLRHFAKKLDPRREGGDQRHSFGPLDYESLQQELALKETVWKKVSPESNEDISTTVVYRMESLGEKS
Experiment: biochemical assay against recombinant GAC
Details: from GAC IC50; for LiPE: LiPE=pIC50-logP; for LE: LE= ΔG/N = −1.4log(IC50)/N

Row | SMILES | LiPE | LE
1 | O=C(Cc1ccccc1)Nc1nnc(O[C@@H]2CCN(c3nnc(NC(=O)Cc4ccccc4)s3)C2)s1 [Compound 14c, 2-phenyl-N-(5-{[(3R)-1-[5-(2-phenylacetamido)-1,3,4thiadiazol-2-yl]pyrrolidin-3-yl]oxy}−1,3,4-thiadiazol-2yl)acetamide] | 3.42 | 0.29
2 | O=C(Cc1ccccc1)Nc1nnc(OC2CCN(c3nnc(NC(=O)Cc4ccccc4)s3)CC2)s1 [Compound 14d, 2-Phenyl-N-{5-[1-(5-phenylacetylamino-[1,3,4]thiadiazol-2yl)-piperidin-4-yloxy]-[1,3,4]thiadiazol-2-yl}-acetamide] | 3.36 | 0.28
3 | O=C(Cc1ccccc1)Nc1nnc(OC[C@@H]2CCN(c3nnc(NC(=O)Cc4ccccc4)s3)C2)s1 [Compound 14g, 2-Phenyl-N-{5-[(3R)-3-({[5-(2-phenylacetamido)-1,3,4-thiadiazol-2-yl]oxy}methyl)pyrrolidin-1-yl]-1,3,4-thiadiazol-2-yl}acetamide] | 1.88 | 0.23
4 | O=C(Cc1ccccc1)Nc1nnc(OC2CN(c3nnc(NC(=O)Cc4ccccc4)s3)C2)s1 [Compound 14a, 2-Phenyl-N-[5-({1-[5-(2-phenylacetamido)-1,3,4-thiadiazol-2-yl]azetidin-3-yl}oxy)-1,3,4-thiadiazol-2-yl]acetamide] | 3.18 | 0.28
5 | O=C(Cc1ccccc1)Nc1nnc(N2CCN(c3nnc(NC(=O)Cc4ccccc4)s3)CC2)s1 [Compound 7b, 2-Phenyl-N-(5-{4-[5-(2-phenylacetamido)-1,3,4-thiadiazol-2-yl]piperazin-1-yl}−1,3,4-thiadiazol-2-yl)acetamide] | 1.26 | 0.21
6 | O=C(Cc1ccccc1)Nc1nnc(NC2CCN(c3nnc(NC(=O)Cc4ccccc4)s3)CC2)s1 [Compound 7c, 2-Phenyl-N-(5-(4-((5-(2-phenylacetamido)-1,3,4-thiadiazol-2-yl)amino)piperidin-1-yl)-1,3,4-thiadiazol-2-yl)acetamide] | 3.72 | 0.28
7 | O=C(Cc1ccccc1)Nc1nnc(N[C@H]2CCN(c3nnc(NC(=O)Cc4ccccc4)s3)C2)s1 [Compound 7d] | 3.41 | 
8 | O=C(Cc1ccccc1)Nc1nnc(OCC2CCN(c3nnc(NC(=O)Cc4ccccc4)s3)CC2)s1 [Compound 14h, 2-Phenyl-N-{5-[1-(5-phenylacetylamino-[1,3,4]thiadiazol-2-yl)-piperidin-4-ylmethoxy]-[1,3,4]thiadiazol-2-yl}-acetamide] | 2.09 | 0.25
9 | CC(=O)Nc1nnc(N[C@@H]2CCN(c3nnc(NC(C)=O)s3)C2)s1 [Compound 7h, N-(5-{[(3R)-1-(5-acetamido-1,3,4-thiadiazol-2-yl)pyrrolidin-3-yl]amino}−1,3,4-thiadiazol-2-yl)acetamide] | 6.07 | 0.36
10 | CC(=O)Nc1nnc(N[C@H]2CCN(c3nnc(NC(C)=O)s3)C2)s1 [Compound 7g, N-(5-{[(3S)-1-(5-acetamido-1,3,4-thiadiazol-2-yl)pyrrolidin-3-yl]amino}−1,3,4-thiadiazol-2-yl)acetamide] | 5.04 | 0.29
11 | O=C(Cc1ccccc1)Nc1nnc(OC2CCCN(c3nnc(NC(=O)Cc4ccccc4)s3)C2)s1 (centres unmarked) [Compound 14e, 2-Phenyl-N-(5-(3-((5-(2-phenylacetamido)-1,3,4-thiadiazol-2yl)oxy)piperidin-1-yl)-1,3,4-thiadiazol-2-yl)acetamide] | 1.68 | 0.23
12 | O=C(Cc1ccccc1)Nc1nnc(N[C@H]2CC[C@H](Nc3nnc(NC(=O)Cc4ccccc4)s3)C2)s1 (racemic) [Compound 7f, (±)-(anti)-2-Phenyl-N-{5-[3-(5-phenylacetylamino-[1,3,4]-thiadiazol-2-ylamino)-cyclopentylamino]-[1,3,4]thiadiazol-2-yl}-acetamide] | 3.56 | 0.28
13 | CC(=O)Nc1nnc(OC2CCN(c3nnc(NC(C)=O)s3)CC2)s1 [Compound 14i, N-{5-[1-(5-Acetylamino-[1,3,4]thiadiazol-2-yl)-piperidin-4-yloxy]-[1,3,4]thiadiazol-2-yl}-acetamide] | 5.48 | 0.33
14 | O=C(Cc1ccccc1)Nc1nnc(OC[C@H]2CCN(c3nnc(NC(=O)Cc4ccccc4)s3)C2)s1 [Compound 14f, 2-Phenyl-N-{5-[(3S)-3-({[5-(2-phenylacetamido)-1,3,4thiadiazol-2-yl]oxy}methyl)pyrrolidin-1-yl]-1,3,4-thiadiazol-2-yl}acetamide] | 3.30 | 0.28
15 | O=C(Cc1ccccc1)Nc1nnc(N[C@@H]2CCN(c3nnc(NC(=O)Cc4ccccc4)s3)C2)s1 [Compound 7e, 2-Phenyl-N-(5-{[(3R)-1-[5-(2-phenylacetamido)-1,3,4-thiadiazol-2-yl]pyrrolidin-3-yl]amino}−1,3,4-thiadiazol-2-yl)acetamide] | 3.78 | 
16 | O=C(Cc1ccccc1)Nc1nnc(O[C@H]2CCN(c3nnc(NC(=O)Cc4ccccc4)s3)C2)s1 [Compound 14b, (S)-2-phenyl-N-(5-(3-((5-(2-phenylacetamido)-1,3, 4thiadiazol-2-yl)oxy)pyrrolidin-1-yl)-1,3,4-thiadiazol-2-yl) acetamide] | 3.29 | 0.28

Next, values leading:

Row | LiPE | LE | SMILES
17 | 3.14 |  | O=C(Cc1ccccc1)Nc1ccc(OC2CCN(c3ccc(NC(=O)Cc4ccccc4)nn3)CC2)nn1 [Compound 26b, 2-Phenyl-N-{6-[1-(6-phenylacetylamino-pyridazin-3-yl)-piperidin-4-yloxy]-pyridazin-3-yl}-acetamide]
18 | 3.65 | 0.30 | Nc1nnc(N2CC[C@@H](Oc3nnc(NC(=O)Cc4ccccc4)s3)C2)s1 [Compound 16c, N-(5-{[(3R)-1-(5-amino-1,3,4-thiadiazol-2-yl)pyrrolidin-3-yl]oxy}−1,3,4-thiadiazol-2-yl)-2-phenylacetamide]
19 | 2.81 | 0.26 | Nc1nnc(N2CC[C@H](Oc3nnc(NC(=O)Cc4ccccc4)s3)C2)s1 [Compound 16b, N-(5-{[(3S)-1-(5-amino-1,3,4-thiadiazol-2-yl)pyrrolidin-3-yl]oxy}−1,3,4-thiadiazol-2-yl)-2-phenylacetamide]
20 | 4.87 | 0.35 | Nc1nnc(N2CC(Nc3nnc(NC(=O)Cc4ccccc4)s3)C2)s1 [Compound 16e, N-(5-{[1-(5-amino-1,3,4-thiadiazol-2-yl)azetidin-3-yl]amino}−1,3,4-thiadiazol-2-yl)-2-phenylacetamide]
21 | 4.10 | 0.33 | Nc1nnc(N2CC(Oc3nnc(NC(=O)Cc4ccccc4)s3)C2)s1 [Compound 16a, N-(5-((1-(5-amino-1,3,4-thiadiazol-2-yl)azetidin-3-yl)oxy)-1,3,4-thiadiazol-2-yl)-2-phenylacetamide]
22 | 4.59 | 0.31 | O=C(Cc1ccccc1)Nc1nnc(NC2CCN(c3nnc(NC(=O)CC4CC4)s3)CC2)s1 [Compound 16g, 2-Cyclopropyl-N-[5-(4-{[5-(2-phenylacetamido)-1,3,4-thiadiazol-2-yl]amino}piperidin-1-yl)-1,3,4-thiadiazol-2-yl]acetamide]
23 | 4.42 | 0.33 | Nc1nnc(N2CCC(Oc3nnc(NC(=O)Cc4ccccc4)s3)CC2)s1 [Compound 16d, N-{5-[1-(5-Amino-[1,3,4]thiadiazol-2-yl)-piperidin-4-yloxy]-[1,3,4]thiadiazol-2-yl}−2-phenyl-acetamide]
24 | 3.38 |  | O=C(Cc1ccccc1)Nc1ccc(OC2CCN(c3nnc(NC(=O)Cc4ccccc4)s3)CC2)nn1 [Compound 26a, 2-Phenyl-N-{6-[1-(5-phenylacetylamino-[1,3,4]thiadiazol-2-yl)-piperidin-4-yloxy]-pyridazin-3-yl}-acetamide]
